Tests used:
[1] = test system: rat aortic smooth muscle cell; conditions: Li 2007; cited from earlier work
[2] = test system: fibrosis induced by common bile duct ligation in mice; test: Bile duct ligation (BDL) model, Sirius-red staining of liver sections; type: in vivo, C57BL/6 mice; conditions: mean ± SD, OCA 5 mg/kg and/or atorvastatin 10 mg/kg orally once daily day 0 to day 6
Experimental: This experiment was performed to evaluate the effects of OCA and atorvastatin alone, and in combination, on fibrosis induced by common bile duct ligation in mice.
Male C57BL/6 mice (6 weeks of age) were obtained from Japan SLC. The animals were maintained in a specific pathogen free facility under controlled conditions of temperature (23±2° C.), humidity (45±10%), lighting (12-hour artificial light and dark cycles; light from 8:00 to 20:00), and air exchange (air exchange rate: more than 40 times/hour). A high pressure (20±4 Pa) was maintained in the experimental room to prevent contamination of the facility. The animals were housed in KN-600 (Natsume Seisakusho, Japan) with a maximum of 6 mice per cage. […]
Viability, clinical signs and behavior were monitored daily. Body weight was recorded daily during the treatment period. Food consumption was measured twice weekly per cage during the treatment period. […]
To visualize collagen deposition, Bouin's-fixed left lateral liver sections were stained using picro-Sirius red solution (Waldeck, Germany). For quantitative analysis of the fibrosis area, bright field images of Sirius red-stained sections were captured around the central vein using a digital camera (DFC295; Leica, Germany) at 100-fold magnification, and the positive areas in 5 fields/section were measured using ImageJ software (National Institute of Health, USA). […]

[3] = test system: leukocyte extravasation signaling; test: Hepatic gene expression profiling (RNA sequencing, pathway analysis) in APOE*3Leiden.CETP mice; type: in vivo
Experimental: This experiment was performed to evaluate the effects of OCA and fenofibrate, alone or in combination, on the development of diet induced NASH and liver fibrosis in APOE*3Leiden.CETP transgenic mice. Hepatic gene expression profiling and subsequent pathway analysis were performed to determine whether the combination regulates novel genes not regulated by either monotherapy treatment, and/or more strongly regulates genes also impacted by the monotherapy.
Mice were fed a high fat chow (HFC) diet for […]. After 15 weeks on the HFC diet, HFC mice were matched into 7 groups based on age, body weight, plasma cholesterol and triglycerides after 4 h fasting. Mice were treated with of OCA and fenofibrate, alone or in combination beginning at week 15 and sacrificed at week 25 in an unfasted state. One week before sacrifice, mice were labeled with D20, by i.p. injection of a bolus of D20 and subsequent addition of 4% D20 to the drinking water. Plasma (EDTA) was obtained by heart puncture and stored at −70° C. The liver was weighed and 4 pieces of liver were isolated: 1 piece (medial lobe) was fixed in 10% formalin (for NASH and fibrosis histology) and 3 pieces (sinister lobe) were snap-frozen in liquid N2 and stored individually at −70° C.
Nucleic acid extraction was performed as described previously in detail (Verschuren et al., 2014). Briefly, total RNA was extracted from individual liver samples using glass beads and RNAzol (Campro Scientific, Veenendaal, The Netherlands). RNA concentration and quality was determined using the Fragment Analyzer (Advanced Analytical Technologies, USA) and the RNA 6000 Nano Lab-on-a-Chip kit and a Bioanalyzer 2100 (Agilent Technologies, Amstelveen, The Netherlands). All samples met the quality requirements and were used in the RNA sequencing procedure.
The NEBNext Ultra Directional RNA library Prep Kit for Illumina was used to process the samples. The sample preparation was performed according to the protocol “NEBNext Ultra Directional RNA Library Prep Kit for Illumina” (NEB #E7420S/L). Briefly, mRNA was isolated from total RNA using oligo-dT magnetic beads. After fragmentation of the mRNA, a cDNA synthesis was performed. This was used for ligation of sequencing adapters and PCR amplification of the resulting product. The quality and yield after sample preparation was measured with the Fragment Analyzer (Advanced Analytical Technologies, USA). The size of the resulting products was consistent with the expected size distribution (a broad peak between 300-500 bp).
Clustering and DNA sequencing using the Illumina […] was performed according manufacturer's protocols. Data was generated using single-end read sequencing protocol obtaining approx. 15 million reads per sample and 75 bp per read. Image analysis, base calling, and quality check was performed with the Illumina data analysis pipeline RTA v2.4.11 to generate the raw data (*.fastq-files).
The reads were mapped to the reference sequence Mus musculus GRCm38.p3 using a short read aligner based on Burrows-Wheeler Transform. The default mismatch rate of 2% (3 mismatches in a read of 150 bases) was used. Based on the mapped read locations in the alignment files (*.bam-files) the frequency of how often a read was mapped on a transcript was determined. The counts were saved to count-files, which served as input for downstream mRNA-seq differential expression analysis. The read counts were loaded into the DESeq package, a statistical package within the R platform. […]

## CC[C@H]1[C@@H](O)[C@@H]2[C@H](CC[C@]3(C)[C@@H]([C@H](C)CCC(=O)O)CC[C@@H]23)[C@@]2(C)CC[C@@H](O)C[C@@H]12 [OCA, 3α,7α-dihydroxy-6α-ethyl-5β-cholan-24-oic acid]
[1]
  pharmacologically-induced rat aortic smooth muscle cell migration: abolished
  production of iNOS or COX-2 induced by IL-1β: inhibited
[2]
  Sirius red-positive area (%): 2.06 ± 0.37%
[3]; Venn diagram, OCA 10 mg/kg, fenofibrate 10 mg/kg, combination
  number of uniquely regulated genes: 109
[3]; liver mRNA, OCA 10 mg/kg and/or low dose fenofibrate vs HFC
  enrichment analysis of canonical (inflammatory) pathways: regulated several inflammatory processes
[3]; liver mRNA, OCA and/or low dose fenofibrate, relative to vehicle group
  regulation of genes of leukocyte extravasation signaling (leukocyte and endothelial cells): downregulates numerous genes
